Data from ChEMBL document CHEMBL5634125, “Investigation of novel 5'-amino adenosine derivatives with potential anti-Zika virus activity” (Eur J Med Chem, 2023).
pIC50: −log10 of the molar value. Active and inactive are the calls of the source. No cut-off for these calls is given here.

Experiments:
Zika virus [1] = assay: Antiviral activity against Zika virus SMGC-1 infected in ICR mouse assessed as survival at 1 mg/kg, ip pre-infected with virus for 4 hrs followed by once daily compound administration for 9 days and measured after 24 days relative to control; format: functional; conditions: SMGC-1, 576 h, time 24 day
Zika virus [2] = assay: Antiviral activity against Zika virus infected in golden hamster BHK cells assessed as inhibition of virus induced cytopathic effect incubated for 6 to 8 days by CellTiter-Glo luminescent cell viability assay; format: functional, organism-based
Zika virus [3] = assay: Antiviral activity against Zika virus infected in Ifnar-/- A129 mouse assessed as reduction in viral RNA in serum at 10 mg/kg, ip administered twice daily for 4 days by qRT-PCR analysis; format: functional, organism-based; conditions: time 4.0 day
Zika virus [4] = assay: Antiviral activity against Zika virus infected in golden hamster BHK cells assessed as inhibition of viral RNA production at stage IV pre-infected with virus for 2 hrs followed by compound addition and measured 24 hrs post infection by qRT-PCR analysis; format: functional, organism-based; conditions: time 22.0 hrs
[5] = Cmax in ICR mouse at 25 mg/kg, po administered as single dose and measured upto 24 hrs by LC-MS/MS analysis; format: ADME, organism-based; conditions: in vivo
Zika virus [6] = assay: Inhibition of Zika virus NS5 MTase activity at 50 uM by chemiluminescence-based enzymatic assay system relative to control
Zika virus [7] = assay: Antiviral activity against Zika virus SMGC-1 infected in ICR mouse assessed as survival at 10 mg/kg, ip pre-infected with virus for 4 hrs followed by once daily compound administration for 9 days and measured after 24 days relative to control; format: functional; conditions: SMGC-1, 576 h, time 24 day
Zika virus [8] = assay: Antiviral activity against Zika virus infected in U87 cells assessed as suppression of CXCL11 expression at 10 uM by KEGG enrichment analysis; format: functional, organism-based
Zika virus [9] = assay: Antiviral activity against Zika virus SMGC-1 infected in ICR mouse assessed as increase in body weight at 10 mg/kg, ip pre-infected with virus for 4 hrs followed by once daily compound administration for 9 days and measured at 14 to 24 days; format: functional, organism-based; conditions: time 14-24 day
[10] = Tmax in ICR mouse at 25 mg/kg, po administered as single dose and measured upto 24 hrs by LC-MS/MS analysis; format: ADME, organism-based; conditions: in vivo
Zika virus [11] = assay: Antiviral activity against Zika virus infected in golden hamster BHK cells assessed as inhibition of viral replication incubated for 72 hrs by qRT-PCR analysis; format: functional, organism-based; conditions: dose 2.5-20 µM
[12] = Acute toxicity in A129 mouse assessed as animal death at 50 mg/kg, po measured after 2 weeks; format: organism-based; conditions: in vivo, 336 h
[13] = Inhibition of Zika virus NS5 transfected in HEK293T cells co-transfected with GLuc reporter plasmid incubated for 24 hrs by GLuc reporter assay; format: cell-based; conditions: HEK-293T
[14] = Acute toxicity in po dosed ICR mouse assessed as lethal dose measured after 2 weeks; format: organism-based; conditions: in vivo
U-87MG ATCC [15] = assay: Effect on CXCL2 expression in human U87 cells infected with Zika virus at 10 uM by KEGG enrichment analysis; format: functional, cell-based
Dengue virus [16] = assay: Antiviral activity against Dengue virus assessed as inhibition of viral RNA production at stage IV; format: functional, organism-based
[17] = Acute toxicity in A129 mouse assessed as animal death at 200 mg/kg, po measured after 2 weeks; format: organism-based; conditions: in vivo, 336 h
Zika virus [18] = assay: Antiviral activity against Zika virus infected in infected in golden hamster BHK cells assessed as inhibition of viral RNA production at stage III incubated for 24 hrs by qRT-PCR analysis; format: functional, organism-based
Zika virus [19] = assay: Antiviral activity against Zika virus infected in golden hamster BHK cells assessed as reduction in infectious viral propagation incubated for 72 hrs by plaque reduction assay; format: functional, organism-based; conditions: dose 2.5-20 µM
Dengue virus [20] = assay: Antiviral activity against Dengue virus assessed as inhibition of viral RNA production at stage III; format: functional, organism-based
Zika virus [21] = assay: Inhibition of Zika virus NS5-RdRp at 50 uM preincubated for 20 mins followed by ATP addition and measured after 60 mins by fluorescence based assay relative to control; conditions: time 80.0 min
Zika virus [22] = assay: Inhibition of Zika virus NS5-RdRp preincubated for 20 mins followed by ATP addition and measured after 60 mins by fluorescence based assay; conditions: dose 3.13-50 µM, time 80.0 min
[23] = Half-life in ICR mouse at 25 mg/kg, po administered as single dose and measured upto 24 hrs by LC-MS/MS analysis; format: ADME, organism-based; conditions: in vivo
Zika virus [24] = assay: Inhibition of Zika virus NS5-RdRp at 12.5 uM preincubated for 20 mins followed by ATP addition and measured after 60 mins by fluorescence based assay relative to control; conditions: time 80.0 min
[25] = AUC (0 to t) in ICR mouse at 25 mg/kg, po administered as single dose and measured upto 24 hrs by LC-MS/MS analysis; format: ADME, organism-based; conditions: in vivo
U-87MG ATCC [26] = assay: Effect on CXCL8 expression in human U87 cells infected with Zika virus at 10 uM by KEGG enrichment analysis; format: functional, cell-based
U-87MG ATCC [27] = assay: Effect on CXCL3 expression in human U87 cells infected with Zika virus at 10 uM by KEGG enrichment analysis; format: functional, cell-based
[28] = MRT in ICR mouse at 25 mg/kg, po administered as single dose and measured upto 24 hrs by LC-MS/MS analysis; format: ADME, organism-based; conditions: in vivo
Zika virus [29] = assay: Antiviral activity against Zika virus infected in golden hamster BHK cells assessed as inhibition of viral protein production incubated for 72 hrs by Western blot analysis; format: functional, organism-based; conditions: dose 2.5-20 µM
Zika virus [30] = assay: Inhibition of Zika virus NS2B-NS3 protease using Bz-Nle-Lys-Lys-Arg-AMC as substrate at 1.25 to 200 uM preincubated for 30 mins followed by substrate addition and measured after 20 mins by Real-time fluorescence based analysis; conditions: dose 1.25-200 µM, time 50.0 min
Zika virus [31] = assay: Antiviral activity against Zika virus infected in golden hamster BHK-21 cells assessed as inhibition of viral replication incubated for 72 hrs by Dual-luciferase reporter assay system; format: functional, organism-based; conditions: BHK-21, 72 h
[32] = Acute toxicity in A129 mouse assessed as animal death at 100 mg/kg, po measured after 2 weeks; format: organism-based; conditions: in vivo, 336 h
NS5 (Zika virus) = NS5 (Zika virus) (UniProt A0A143MHK7); assay: Binding affinity to Zika virus RdRp by SPR analysis; conditions: dose 1.56-25 µM

O[C@@H]1[C@H](O)[C@@H](CNCc2ccc(C(F)(F)F)cc2)O[C@H]1n1cnc2c(NCc3cccc(Cl)c3)ncnc21
survival at 1 mg/kg (Zika virus [1]): 30%
pIC50 (Zika virus [2]): 5.67
Activity (Zika virus [3]): Active
Activity (Zika virus [4]): Active
Cmax [5]: 699 ng/mL
inhibition (Zika virus [6]): 20.5%
survival at 10 mg/kg (Zika virus [7]): 70%
Activity (Zika virus [8]): Active
Activity (Zika virus [9]): Active
Tmax [10]: 0.42 h
Activity (Zika virus [11]): Dose-Dependent Effect
Activity [12]: Non-Toxic
pIC50 [13]: 5.06
LD50 at 336 h [14]: > 200 mg/kg
Activity (U-87MG ATCC [15]): inactive
Activity (Dengue virus [16]): Active
Activity [17]: Non-Toxic
Activity (Zika virus [18]): Active
Activity (Zika virus [19]): Dose-Dependent Effect
Activity (Dengue virus [20]): Active
inhibition (Zika virus [21]): 62.4%
inhibition (Zika virus [22]): Dose-Dependent Effect
half-life [23]: 2.46 h
inhibition (Zika virus [24]): 17.5%
AUC(0-t) at 24 h [25]: 2220 ng·h/mL
Activity (U-87MG ATCC [26]): inactive
Activity (U-87MG ATCC [27]): inactive
MRT [28]: 3.82 h
Activity (Zika virus [29]): Dose-Dependent Effect
inhibition (Zika virus [30]): inactive
pIC50 (Zika virus [31]): 5.28
Activity [32]: Non-Toxic
Activity (NS5 (Zika virus)): Dose-Dependent Effect
